# From paper PMC11434613, “The Remarkable and Selective In Vitro Cytotoxicity of Synthesized Bola-Amphiphilic Nanovesicles on Etoposide-Sensitive and -Resistant Neuroblastoma Cells” (Nanomaterials, 2024)
# Tests used:
# [1] = test system: HTLA-230 human stage-IV NB cells; settings: 100 µM for 24 h; cited from earlier work
# HTLA-ER cells [2] = settings: cited from earlier work
# HTLA-ER cells [3] = experiment: Cell viability assay (CellTiter 96 AQueous One Solution) on etoposide-resistant HTLA-ER NB cells; assay type: cell-based, human; settings: average IC50 on three human normal oral cell lines (ref 69) / IC50 on HTLA-ER after 24 h (ref 58)
# Excerpt: HTLA-230 human stage-IV NB cells were kindly provided by Dr. L. Raffaghello (G. Gaslini Institute, Genoa, Italy). The HTLA-ER cells were selected by treating HTLA-230 parental cells for six months with increasing concentrations of etoposide, as previously reported. Both cell populations were maintained in RPMI 1640 medium (Euroclone Spa, Pavia, Italy) supplemented with 10% fetal bovine serum (FBS, Euroclone Spa, Pavia, Italy), 1% L-glutamine (Euroclone Spa, Pavia, Italy), and 1% Penicillin/Streptomicin (Euroclone Spa, Pavia, Italy) and grown in standard conditions (37 °C humidified incubator with 5% CO2).
# To determine the cytotoxic effects of BPPB, in vitro time- and dose-dependent experiments were carried out. Cells were first treated for 24, 48, and 72 h, with increasing concentrations (0.5–50 µM) of the compound. In a subsequent series of the experiments, cells were treated for 24, 48, and 72 h with increasing concentration of BPPB in the range of 0.1–2 µM. […] Cell cultures were carefully monitored before and during the experiments to ensure optimal cell density.
# Cell viability was determined by using the CellTiter 96® AQueous One Solution Cell Proliferation Assay (Promega, Madison, WI, USA), as previously described. Briefly, cells (10,000 cells/well) were seeded into 96-well plates (Corning Incorporated, Corning, NY, USA) and then treated. Next, cells were incubated with 20 µL of CellTiter, and the absorbance at 490 nm was recorded using a microplate reader (EL-808, BIO-TEK Instruments Inc., Winooski, VT, USA). IC50 was evaluated by GraphPad Prism 5.4.2 Software (GraphPad Software, Boston, MA, USA).
# Results are expressed as the means ± S.D. of at least four independent experiments in which six different wells were analyzed every time for each experimental condition. The statistical significance of differences was determined by two-way analysis of variances (ANOVA) followed by Tukey’s multicomparison test using GraphPad Prism 8.0 (GraphPad Software v8.0, San Diego, CA, USA); p < 0.05 was considered statistically significant. Asterisks or other indicators (see Figures captions) indicate the following p-value ranges: p > 0.05 no symbols, * = p < 0.05, ** = p < 0.01, *** = p < 0.001, **** = p < 0.0001.
structure (smiles),measurement,setting,value
"COc1cc([C@@H]2c3cc4c(cc3[C@@H](O[C@@H]3O[C@@H]5CO[C@@H](C)O[C@H]5[C@H](O)[C@H]3O)[C@H]3COC(=O)[C@H]23)OCO4)cc(OC)c1O [ETO, etoposide]",Cell viability HTLA-230,[1],~70%
same,Cell viability HTLA-ER,HTLA-ER cells [2]; 100 µM for 24 h,over 80%
same,IC50,"HTLA-ER cells [2]; 24 h of exposure, read-out: Extrapolated IC50 on HTLA-ER",592 µM
same,Etoposide SI for HTLA-ER NB cells,HTLA-ER cells [3],0.32
